Experimental data reported in patent publication US20230055021A1, “METHODS FOR TREATING PSYCHIATRIC DISORDERS OR SYMPTOMS THEREOF USING NCAM PEPTIDE MIMETICS” (The Board of Trustees of the Leland Stanford Junior …, priority 2012, published 2023).

How the values were obtained:
adult rats [1] = test: forced swim test (FST), depression-like behavior; format: in vivo
Method: The NCAM peptide mimetic FGLm (5 μg) or vehicle was administered intracerebroventricularly (i.c.v.) to adult rats. […]
FGLL (10 mg/kg, s.c.) or control was also administered to adult rats via injection every 24 hours for 16 days. Animals were tested for locomotion on Day 13, tested for anxiety-like behavior with the EPM on Day 14, tested for depression-like behavior with the FST on Days 15 and 16, and sacrificed on Day 17. […]

adult rats [2] = test: elevated plus maze (EPM), anxiety-like behavior; format: in vivo; conditions: 1, 5 or 10 mg/kg s.c., injected 30 minutes before test
Method: The NCAM peptide mimetic FGLL (1 mg/kg, 5 mg/kg, or 10 mg/kg) or control was administered subcutaneously (s.c.) to adult rats. For the elevated plus maze (EPM), which measures anxiety-like behavior, animals were injected 30 minutes before the test. For the FST, which measures depression-like behavior, animals were injected 1 hour and 5 hours after Day 1 and 30 minutes before Day 2.
The NCAM peptide mimetic plannexin (10 mg/kg) or vehicle control was acutely administered intraperitoneally (i.p.) to adult rats.
Plannexin (10 mg/kg, i.p.) or control was also chronically administered to adult rats via injection every 48 hours on odd days. Animals were tested for locomotion on Day 13, tested for anxiety-like behavior with the EPM on Day 14, tested for depression-like behavior with the FST on Days 15 and 16, and sacrificed on Day 17.

[3] = 10 mg/kg s.c. every 24 hours for 16 days, FST on Days 15 and 16

Molecule	climbing in FST (adult rats [1]; [3])	effect on depression as measured by the FST (adult rats [1]; [3])	immobility in FST (adult rats [1]; [3])	effect on anxiety as measured by the EPM (adult rats [2])	time spent in the Closed parts of the EPM (adult rats [2]; effect at higher doses)	effect on depression as measured by the FST (adult rats [1]; 5 μg i.c.v., vs vehicle)	immobility in FST (adult rats [1]; 5 μg i.c.v., vs vehicle)	swimming in FST (adult rats [1]; 5 μg i.c.v., vs vehicle)
CC(C)[C@H](NC(=O)[C@H](CCC(=O)O)NC(=O)CNCC(=O)N[C@@H](CCC(=O)O)C(=O)N[C@H](C(=O)N[C@H](C(=O)N[C@@H](C)C(=O)N[C@@H](CCC(=O)O)C(=O)N[C@@H](CC(N)=O)C(=O)N[C@@H](CCC(N)=O)C(=O)N[C@@H](CCC(N)=O)C(=O)NCC(=O)N[C@@H](CCCCN)C(=O)N[C@@H](CO)C(=O)N[C@@H](CCCCN)C(=O)N[C@@H](C)C(N)=O)C(C)C)C(C)C)C(=O)N[C@H](C(=O)N[C@@H](C)C(=O)N[C@@H](CCC(=O)O)C(=O)N[C@@H](CC(N)=O)C(=O)N[C@@H](CCC(N)=O)C(=O)N[C@@H](CCC(N)=O)C(=O)NCC(=O)N[C@@H](CCCCN)C(=O)N[C@@H](CO)C(=O)N[C@@H](CCCCN)C(=O)N[C@@H](C)C(N)=O)C(C)C (stereo in doubt) [FGLL]	significantly more climbing	decreased depression	less immobility	increased anxiety	significantly increased	–	–	–
EVYVVAENQQGKSKA [FGLm, NCAM peptide mimetic]	–	–	–	–	–	decreased depression	less immobility	significantly more swimming
